Experimental data taken from PubChem BioAssay AID2060488 (Molecular Pharmacology Branch, DTP, NCI, 2025).

Test system: 966289-007-R4-J1-PDC complex spheroid viability
Assay: Anticancer human tumor 966289-007-R4-J1-PDC patient-derived pancreatic adenocarcinoma cell line growth inhibition [GQUAD]
Settings: for IC50: curve of first compound; for viability, T/C: stronger effect = lower value
In short: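 Tumor cells were grown as complex spheroids with HUVEC endothelial cells and mesenchymal stem cells as stroma. G-quadruplex stabilizers were combined with targeted agents over half-log dilutions from near the clinical Cmax, or from 10 microM.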

[1] = second compound 0.0316 µM, first compound 0.0316 µM
[2] = second compound 0.0316 µM, first compound 0.1 µM
[3] = second compound 0.0316 µM, first compound 0.316 µM
[4] = second compound 0.0316 µM, first compound 1 µM
[5] = second compound 0.0316 µM, first compound 3.16 µM
[6] = second compound 0.0316 µM, first compound 10 µM
[7] = second compound 0.1 µM, first compound 0.0316 µM
[8] = second compound 0.1 µM, first compound 0.1 µM
[9] = second compound 0.1 µM, first compound 0.316 µM
[10] = second compound 0.1 µM, first compound 1 µM
[11] = second compound 0.1 µM, first compound 3.16 µM
[12] = second compound 0.1 µM, first compound 10 µM
[13] = second compound 0.316 µM, first compound 0.0316 µM
[14] = second compound 0.316 µM, first compound 0.1 µM
[15] = second compound 0.316 µM, first compound 0.316 µM
[16] = second compound 0.316 µM, first compound 1 µM
[17] = second compound 0.316 µM, first compound 3.16 µM
[18] = second compound 0.316 µM, first compound 10 µM
[19] = second compound 1 µM, first compound 0.0316 µM
[20] = second compound 1 µM, first compound 0.1 µM
[21] = second compound 1 µM, first compound 0.316 µM
[22] = second compound 1 µM, first compound 1 µM
[23] = second compound 1 µM, first compound 3.16 µM
[24] = second compound 1 µM, first compound 10 µM
[25] = second compound 3.16 µM, first compound 0.0316 µM
[26] = second compound 3.16 µM, first compound 0.1 µM
[27] = second compound 3.16 µM, first compound 0.316 µM
[28] = second compound 3.16 µM, first compound 1 µM
[29] = second compound 3.16 µM, first compound 3.16 µM
[30] = second compound 3.16 µM, first compound 10 µM
[31] = second compound 10 µM, first compound 0.0316 µM
[32] = second compound 10 µM, first compound 0.1 µM
[33] = second compound 10 µM, first compound 0.316 µM
[34] = second compound 10 µM, first compound 1 µM
[35] = second compound 10 µM, first compound 3.16 µM
[36] = second compound 10 µM, first compound 10 µM
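Note: spheroids exposed to the agents for seven days before readout.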
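Throughout, for viability, T/C: percent viability relative to DMSO vehicle control wells taken as 100%.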

Work on `C=CCn1c(=O)c2cnc(Nc3ccc(N4CCN(C)CC4)cc3)nc2n1-c1cccc(C(C)(C)O)n1` + Cc1[nH]c2ccc(F)cc2c1-c1nc2c3cccnc3c3ncccc3c2[nH]1 yielded an IC50 (second compound 0.0316 µM) of 1.83 µM, an IC50 (second compound 0.1 µM) of 1.83 µM and an IC50 (second compound 0.316 µM) of 1.84 µM. For the same molecule, the IC50 (second compound 1 µM) was 1.85 µM, the IC50 (second compound 3.16 µM) was 1.76 µM and the IC50 (second compound 10 µM) was 1.76 µM. It also gave a viability, T/C [1] of 101%, a viability, T/C [2] of 96.7% and a viability, T/C [3] of 112%. The viability, T/C [4] was 99.7%, the viability, T/C [5] was 4.85% and the viability, T/C [6] was 1.9%. It also gave a viability, T/C [7] of 99.5%, a viability, T/C [8] of 98.9% and a viability, T/C [9] of 110%. For the same molecule, the viability, T/C [10] was 99.9%, the viability, T/C [11] was 4.92% and the viability, T/C [12] was 2.17%. The viability, T/C [13] was 97.5%, the viability, T/C [14] was 103% and the viability, T/C [15] was 111%. It also gave a viability, T/C [16] of 98%, a viability, T/C [17] of 7.35% and a viability, T/C [18] of 1.74%. For the same molecule, the viability, T/C [19] was 95.7%, the viability, T/C [20] was 98.3% and the viability, T/C [21] was 111%. The viability, T/C [22] was 100%, the viability, T/C [23] was 6.22% and the viability, T/C [24] was 2%. For the same molecule, the viability, T/C [25] was 102%, the viability, T/C [26] was 109% and the viability, T/C [27] was 109%. For the same molecule, the viability, T/C [28] was 92.9%, the viability, T/C [29] was 5.37% and the viability, T/C [30] was 2.62%. It also gave a viability, T/C [31] of 106%, a viability, T/C [32] of 107% and a viability, T/C [33] of 109%. It also gave a viability, T/C [34] of 93.5%, a viability, T/C [35] of 4.68% and a viability, T/C [36] of 2.33%.
In the case of `CC(C)(O)C1CCC(Nc2ccc3ncc(-c4cccc(C(F)(F)F)c4)n3n2)CC1` (stereo not drawn) + Cc1[nH]c2ccc(F)cc2c1-c1nc2c3cccnc3c3ncccc3c2[nH]1, the IC50 (second compound 0.0316 µM) is reported as > 10 µM, the IC50 (second compound 0.1 µM) is reported as 3.11 µM and the IC50 (second compound 0.316 µM) is reported as 2.96 µM. It also gave an IC50 (second compound 1 µM) of 2.47 µM, an IC50 (second compound 3.16 µM) of 2.5 µM and an IC50 (second compound 10 µM) of 2.37 µM. It also gave a viability, T/C [1] of 108%, a viability, T/C [2] of 105% and a viability, T/C [3] of 109%. It also gave a viability, T/C [4] of 89%, a viability, T/C [5] of 71.7% and a viability, T/C [6] of 55.3%. The viability, T/C [7] was 104%, the viability, T/C [8] was 100% and the viability, T/C [9] was 99.8%. For the same molecule, the viability, T/C [10] was 93.2%, the viability, T/C [11] was 47.5% and the viability, T/C [12] was 51.3%. The viability, T/C [13] was 101%, the viability, T/C [14] was 111% and the viability, T/C [15] was 102%. The viability, T/C [16] was 105%, the viability, T/C [17] was 40.7% and the viability, T/C [18] was 52.6%. For the same molecule, the viability, T/C [19] was 106%, the viability, T/C [20] was 106% and the viability, T/C [21] was 98.9%. For the same molecule, the viability, T/C [22] was 110%, the viability, T/C [23] was 28.9% and the viability, T/C [24] was 41%. For the same molecule, the viability, T/C [25] was 104%, the viability, T/C [26] was 107% and the viability, T/C [27] was 113%. It also gave a viability, T/C [28] of 113%, a viability, T/C [29] of 22.5% and a viability, T/C [30] of 47.1%. It also gave a viability, T/C [31] of 97.1%, a viability, T/C [32] of 111% and a viability, T/C [33] of 112%. It also gave a viability, T/C [34] of 109%, a viability, T/C [35] of 26.2% and a viability, T/C [36] of 35.4%.
With `CCCS(=O)(=O)Nc1ccc(F)c(C(=O)c2c[nH]c3ncc(-c4ccc(Cl)cc4)cc23)c1F` + Cc1[nH]c2ccc(F)cc2c1-c1nc2c3cccnc3c3ncccc3c2[nH]1 the IC50 (second compound 0.0316 µM) was 9.39 µM, the IC50 (second compound 0.1 µM) was 8.56 µM and the IC50 (second compound 0.316 µM) was 8.4 µM. It also gave an IC50 (second compound 1 µM) of 8.67 µM, an IC50 (second compound 3.16 µM) of 7.25 µM and an IC50 (second compound 10 µM) of 7.83 µM. It also gave a viability, T/C [1] of 111%, a viability, T/C [2] of 105% and a viability, T/C [3] of 116%. For the same molecule, the viability, T/C [4] was 113%, the viability, T/C [5] was 113% and the viability, T/C [6] was 46.3%. It also gave a viability, T/C [7] of 101%, a viability, T/C [8] of 110% and a viability, T/C [9] of 113%. The viability, T/C [10] was 112%, the viability, T/C [11] was 111% and the viability, T/C [12] was 40.5%. The viability, T/C [13] was 101%, the viability, T/C [14] was 108% and the viability, T/C [15] was 110%. The viability, T/C [16] was 114%, the viability, T/C [17] was 112% and the viability, T/C [18] was 39.3%. For the same molecule, the viability, T/C [19] was 97.6%, the viability, T/C [20] was 112% and the viability, T/C [21] was 115%. It also gave a viability, T/C [22] of 114%, a viability, T/C [23] of 116% and a viability, T/C [24] of 41.4%. For the same molecule, the viability, T/C [25] was 110%, the viability, T/C [26] was 114% and the viability, T/C [27] was 115%. For the same molecule, the viability, T/C [28] was 110%, the viability, T/C [29] was 108% and the viability, T/C [30] was 27.6%. The viability, T/C [31] was 104%, the viability, T/C [32] was 111% and the viability, T/C [33] was 115%. The viability, T/C [34] was 112%, the viability, T/C [35] was 112% and the viability, T/C [36] was 33.5%.
In the case of `COc1ncnc(C2CC2)c1-c1ncc2cnn(Cc3ccc(-c4nc(C(F)(F)F)cn4C(C)C)cc3)c2n1` + Cc1[nH]c2ccc(F)cc2c1-c1nc2c3cccnc3c3ncccc3c2[nH]1, the IC50 (second compound 0.0316 µM) is reported as > 10 µM, the IC50 (second compound 0.1 µM) is reported as > 10 µM and the IC50 (second compound 0.316 µM) is reported as > 10 µM. For the same molecule, the IC50 (second compound 1 µM) was > 10 µM, the IC50 (second compound 3.16 µM) was > 10 µM and the IC50 (second compound 10 µM) was > 10 µM. It also gave a viability, T/C [1] of 106%, a viability, T/C [2] of 99.2% and a viability, T/C [3] of 104%. It also gave a viability, T/C [4] of 99.7%, a viability, T/C [5] of 104% and a viability, T/C [6] of 107%. It also gave a viability, T/C [7] of 106%, a viability, T/C [8] of 105% and a viability, T/C [9] of 104%. It also gave a viability, T/C [10] of 99.6%, a viability, T/C [11] of 100% and a viability, T/C [12] of 107%. The viability, T/C [13] was 101%, the viability, T/C [14] was 99.8% and the viability, T/C [15] was 107%. It also gave a viability, T/C [16] of 100%, a viability, T/C [17] of 102% and a viability, T/C [18] of 96.5%. The viability, T/C [19] was 98.2%, the viability, T/C [20] was 105% and the viability, T/C [21] was 107%. For the same molecule, the viability, T/C [22] was 104%, the viability, T/C [23] was 108% and the viability, T/C [24] was 110%. For the same molecule, the viability, T/C [25] was 107%, the viability, T/C [26] was 106% and the viability, T/C [27] was 108%. The viability, T/C [28] was 108%, the viability, T/C [29] was 109% and the viability, T/C [30] was 110%. For the same molecule, the viability, T/C [31] was 107%, the viability, T/C [32] was 104% and the viability, T/C [33] was 109%. The viability, T/C [34] was 104%, the viability, T/C [35] was 111% and the viability, T/C [36] was 111%.
